Measurements as given in patent publication US8906952B2, “Indole derivative or pharmaceutically acceptable salt thereof, preparation method thereof, and pharmaceutical composition for preventing or treating metabolic diseases containing same as active ingredient” (Korea Research Institute of Bioscience and Biotechnology, priority 2011, dated 2014).

What was measured:
human DGAT2 = target: T1, human DGAT2 (Homo sapiens, UniProt Q96PD7); assay: DGAT enzyme inhibition test, hDGAT2 enzyme from sf9 insect cells (DGAT2 selectivity); type: biochemical; conditions: 10 μM; enzyme from sf9 cells overexpressing hDGAT2; read-out: hDGAT-2 (sf9) inhibition rate(%)at 10 μM
T1 construct: made in house; host or cells: sf9 insect cells
T1 sequence (Q96PD7 1-388): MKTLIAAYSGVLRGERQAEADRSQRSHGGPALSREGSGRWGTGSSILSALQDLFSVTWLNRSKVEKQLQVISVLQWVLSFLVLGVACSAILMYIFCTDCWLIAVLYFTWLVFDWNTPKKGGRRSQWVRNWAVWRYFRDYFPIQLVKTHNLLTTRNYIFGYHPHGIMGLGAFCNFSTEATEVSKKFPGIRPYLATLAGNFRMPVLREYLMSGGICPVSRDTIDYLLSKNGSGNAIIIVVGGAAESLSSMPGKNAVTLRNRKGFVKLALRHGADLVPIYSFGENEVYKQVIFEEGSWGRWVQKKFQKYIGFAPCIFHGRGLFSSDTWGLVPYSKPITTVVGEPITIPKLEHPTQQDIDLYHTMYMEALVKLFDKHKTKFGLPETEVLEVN
Method in brief: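 Microsomes (100–200 μg) from sf9 cells overexpressing the human enzyme were incubated 10 min at 25 °C with compound in 175 mM Tris-HCl pH 8.0, 100 mM MgCl2, BSA, 30 μM [14C]palmitoyl-CoA and 200 μM 1,2-dioleoylglycerol. Extracted [14C]triacylglycerol was counted by LSC. Inhibition was calculated from treated, untreated and no-enzyme counts.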

HepG2 cells = assay: DGAT inhibitory effect in HepG2 cells (triglyceride production from [14C]glycerol); type: cell-based; conditions: Homo sapiens, HepG2, 6 h; 10 μM; DMSO control = 100; read-out: Triglyceride production rate (%)/HepG2 cells at 10 μM
Method in brief: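 HepG2 cells, switched to FBS-free DMEM, were treated with compounds at 10 μM and given 0.2 mCi [14C]glycerol for 6 hr. Lipids were hexane:isopropanol-extracted, triglyceride separated by TLC and quantified by radio-imaging, normalised to cell protein. Production expressed relative to DMSO control set at 100.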

Row | inhibition at 10 µM (human DGAT2) [%] | SMILES | activity at 10 µM (HepG2 cells) [%]
1 | 22.1 | Cc1ccc(C(=O)NN(C(=O)/C=C/c2cn(C(=O)OC(C)(C)C)c3ccccc23)C(C)C)cc1 [Example 48, (E)-tert-butyl 3-(3-(1-isopropyl-2-(4-methylbenzoyl)hydrazinyl)-3-oxoprop-1-enyl)-1H-indole-1-carboxylate] | 96.7
2 | 28 | CC(C)=CCn1cc(/C=C/C(=O)N(NC(=O)c2ccc(F)cc2)C(C)C)c2ccccc21 [Example 49, (E)-4-fluoro-N′-isopropyl-N′-(3-(1-(3-methylbut-2-enyl)-1H-indol-3-yl)acryloyl)benzohydrazide] | 55.7
